Source: US10703765B2 (priority 2014, dated 2020)
Where a name gives a salt, the structure may show the parent alone.

These compounds were tested against human σ1 receptor (Homo sapiens, UniProt Q99720) (assay: biochemical). Conditions: not given.
Format: binding
Set-up: μ and σ1 dual binding: key to the marks not given beside the values

human σ1 receptor, sequence (Q99720 whole entry): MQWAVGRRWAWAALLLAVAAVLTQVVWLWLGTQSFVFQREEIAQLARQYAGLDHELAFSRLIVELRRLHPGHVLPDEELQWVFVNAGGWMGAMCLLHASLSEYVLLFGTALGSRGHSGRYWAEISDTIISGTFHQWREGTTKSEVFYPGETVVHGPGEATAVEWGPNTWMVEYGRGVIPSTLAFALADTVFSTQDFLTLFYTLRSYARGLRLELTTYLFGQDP

Row | Compound | Ki | μ and σ1 dual binding
1 | CC1OC2(CCN(CCc3ccccc3)CC2)CN(CCc2cccnc2)C1=O (stereo not drawn) [Example 175, 2-methyl-9-phenethyl-4-(2-(pyridin-3-yl)ethyl)-1-oxa-4,9-diazaspiro[5.5]undecan-3-one dihydrochloride] | < 500 nM | 
2 | O=C1COC2(CCN(CCc3ccccc3)CC2)CN1Cc1ccc(C(F)(F)F)cn1 [Example 177, 9-phenethyl-4-((5-(trifluoromethyl)pyridin-2-yl)methyl)-1-oxa-4,9-diazaspiro[5.5]undecan-3-one hydrochloride] | < 100 nM | 
3 | Cl.O=C1COC2(CCN(CCc3ccccc3)CC2)CN1CCc1ccncc1 [Example 178, 9-phenethyl-4-(2-(pyridin-4-yl)ethyl)-1-oxa-4,9-diazaspiro[5.5]undecan-3-one hydrochloride] |  | ++
4 | COCCN1CC2(CCN(CCc3ccccc3)CC2)OC2(CC2)C1=O.Cl [Example 184, 12-(2-methoxyethyl)-8-phenethyl-4-oxa-8,12-diazadispiro[2.1.5.3]tridecan-13-one hydrochloride] |  | ++
5 | Cl.O=C1COC2(CCN(Cc3ccccc3)CC2)CN1c1ccc(F)cc1 [Example 188, 9-benzyl-4-(4-fluorophenyl)-1-oxa-4,9-diazaspiro[5.5]undecan-3-one hydrochloride] |  | ++
6 | CC1OC2(CCN(CCc3ccccc3)CC2)CN(c2ccccn2)C1=O.Cl (stereo not drawn) [Example 196, 2-methyl-9-phenethyl-4-(pyridin-2-yl)-1-oxa-4,9-diazaspiro[5.5]undecan-3-one hydrochloride] |  | ++
7 | CCOC(=O)c1cccc(N2CC3(CCN(CCc4ccccc4)CC3)OC(C)C2=O)c1.Cl (stereo not drawn) [Example 197, ethyl 3-(2-methyl-3-oxo-9-phenethyl-1-oxa-4,9-diazaspiro[5.5]undecan-4-yl)benzoate hydrochloride] |  | ++
8 | CC1OC2(CCN(CCc3ccccc3)CC2)CN(c2cccc(C#N)c2)C1=O.Cl (stereo not drawn) [Example 198, 3-(2-methyl-3-oxo-9-phenethyl-1-oxa-4,9-diazaspiro[5.5]undecan-4-yl)benzonitrile hydrochloride] |  | ++
9 | CC1OC2(CCN(CCc3ccccc3)CC2)CN(c2nn(C)c3ccccc23)C1=O.Cl (stereo not drawn) [Example 200, 2-methyl-4-(1-methyl-1H-indazol-3-yl)-9-phenethyl-1-oxa-4,9-diazaspiro[5.5]undecan-3-one hydrochloride] |  | ++
10 | CC1OC2(CCN(CCc3ccccc3)CC2)CN(c2ccc3cnn(C)c3c2)C1=O.Cl (stereo not drawn) [Example 201, 2-methyl-4-(1-methyl-1H-indazol-6-yl)-9-phenethyl-1-oxa-4,9-diazaspiro[5.5]undecan-3-one hydrochloride] |  | ++
11 | CC1OC2(CCN(CCc3ccccc3)CC2)CN(c2ccc3c(c2)OCO3)C1=O (stereo not drawn) [Example 202, 4-(benzo[d][1,3]dioxol-5-yl)-2-methyl-9-phenethyl-1-oxa-4,9-diazaspiro[5.5]undecan-3-one hydrochloride] | < 500 nM | 
12 | CC1OC2(CCN(CCc3ccccc3)CC2)CN(c2ccc3ncsc3c2)C1=O (stereo not drawn) [Example 203, 4-(benzo[d]thiazol-6-yl)-2-methyl-9-phenethyl-1-oxa-4,9-diazaspiro[5.5]undecan-3-one] |  | ++
13 | CC1OC2(CCN(CCc3ccccc3)CC2)CN(c2nc3ccccc3s2)C1=O.Cl (stereo not drawn) [Example 204, 4-(benzo[d]thiazol-2-yl)-2-methyl-9-phenethyl-1-oxa-4,9-diazaspiro[5.5]undecan-3-one hydrochloride] |  | ++
14 | CC1OC2(CCN(CCc3ccccc3)CC2)CN(c2ccncc2)C1=O.Cl (stereo not drawn) [Example 205, 2-methyl-9-phenethyl-4-(pyridin-4-yl)-1-oxa-4,9-diazaspiro[5.5]undecan-3-one hydrochloride] |  | ++
15 | COc1cccc(N2CC3(CCN(CCc4ccccc4)CC3)OC(C)C2=O)n1 (stereo not drawn) [Example 211, 4-(6-methoxypyridin-2-yl)-2-methyl-9-phenethyl-1-oxa-4,9-diazaspiro[5.5]undecan-3-one hydrochloride] | < 500 nM | 
16 | CC1OC2(CCN(CCc3ccccc3)CC2)CN(c2cccnc2F)C1=O (stereo not drawn) [Example 213, 4-(2-fluoropyridin-3-yl)-2-methyl-9-phenethyl-1-oxa-4,9-diazaspiro[5.5]undecan-3-one] | < 100 nM | 

Same assay, conditions: combined class from Ki-σ1 (human σ1 receptor, A1) and Ki-μ (human μ-opioid receptor, A2) radioligand binding

Row | Compound | μ and σ1 dual binding
17 | CC1OC2(CCN(CCc3ccccc3)CC2)CN(c2cnn(C)c2)C1=O (stereo not drawn) [Example 210, 2-methyl-4-(1-methyl-1H-pyrazol-4-yl)-9-phenethyl-1-oxa-4,9-diazaspiro[5.5]undecan-3-one] | ++

Same assay, conditions: read-out: μ and σ1 dual binding

Row | Compound | Ki
18 | O=C1COC2(CCN(CCc3ccccc3)CC2)CN1Cc1ccc(F)cn1 [Example 176, 4-((5-fluoropyridin-2-yl)methyl)-9-phenethyl-1-oxa-4,9-diazaspiro[5.5]undecan-3-one hydrochloride] | < 500 nM
19 | O=C1COC2(CCN(CCc3ccccc3)CC2)CN1Cc1cccc([N+](=O)[O-])c1 [Example 179, 4-(3-nitrobenzyl)-9-phenethyl-1-oxa-4,9-diazaspiro[5.5]undecan-3-one] | > 500 nM
20 | COCCCN1CC2(CCN(CCc3ccccc3)CC2)OC2(CC2)C1=O [Example 180, 12-(3-methoxypropyl)-8-phenethyl-4-oxa-8,12-diazadispiro[2.1.5.3]tridecan-13-one hydrochloride] | < 500 nM
21 | N#CCCN1CC2(CCN(CCc3ccccc3)CC2)OC2(CC2)C1=O [Example 181, 3-[13-oxo-8-phenethyl-4-oxa-8,12-diazadispiro[2.1.5.3]tridecan-12-yl]propanenitrile hydrochloride] | > 500 nM
22 | CN(C)C(=O)CCN1CC2(CCN(CCc3ccccc3)CC2)OC2(CC2)C1=O [Example 182, N,N-dimethyl-3-[13-oxo-8-phenethyl-4-oxa-8,12-diazadispiro[2.1.5.3]tridecan-12-yl]propanamide hydrochloride] | > 500 nM
23 | CC1OC2(CCN(CCc3ccccc3)CC2)CN(CC(C)(C)O)C1=O (stereo not drawn) [Example 183, 4-(2-hydroxy-2-methylpropyl)-2-methyl-9-phenethyl-1-oxa-4,9-diazaspiro[5.5]undecan-3-one] | > 500 nM
24 | O=C1N(CCOC2CCCCO2)CC2(CCN(CCc3ccccc3)CC2)OC12CC2 (stereo not drawn) [Example 185, 12-(2-((tetrahydro-2H-pyran-2-yl)oxy)ethyl)-8-phenethyl-4-oxa-8,12-diazadispiro[2.1.5.3]tridecan-13-one] | > 500 nM
25 | COC(=O)CCN1CC2(CCN(CCc3ccccc3)CC2)OC2(CC2)C1=O [Example 186, methyl 3-(13-oxo-8-phenethyl-4-oxa-8,12-diazadispiro[2.1.5.3]tridecan-12-yl)propanoate] | > 500 nM
26 | O=C1N(Cc2ccc(C(F)(F)F)cn2)CC2(CCN(CCc3ccccc3)CC2)OC12CC2 [Example 187, 8-phenethyl-12-{[5-(trifluoromethyl)pyridin-2-yl]methyl}-4-oxa-8,12-diazadispiro[2.1.5.3]tridecan-13-one dihydrochloride] | < 100 nM
27 | O=C1COC2(CCN(CCc3ccccc3)CC2)CN1c1ccccc1F [Example 189, 4-(2-fluorophenyl)-9-phenethyl-1-oxa-4,9-diazaspiro[5.5]undecan-3-one] | < 500 nM
28 | O=C1COC2(CCN(CCc3ccccc3)CC2)CN1c1ccc(F)cc1 [Example 190, 4-(4-fluorophenyl)-9-phenethyl-1-oxa-4,9-diazaspiro[5.5]undecan-3-one] | < 500 nM
29 | O=C1COC2(CCN(CCc3ccccc3)CC2)CN1c1cccc(F)c1 [Example 191, 4-(3-fluorophenyl)-9-phenethyl-1-oxa-4,9-diazaspiro[5.5]undecan-3-one] | < 500 nM
30 | CC1OC2(CCN(CCc3ccccc3)CC2)CN(c2ccccc2F)C1=O (stereo not drawn) [Example 192, 4-(2-fluorophenyl)-2-methyl-9-phenethyl-1-oxa-4,9-diazaspiro[5.5]undecan-3-one hydrochloride] | < 100 nM
31 | CC1OC2(CCN(CCc3ccccc3)CC2)CN(c2ccccc2Cl)C1=O (stereo not drawn) [Example 193, 4-(2-chlorophenyl)-2-methyl-9-phenethyl-1-oxa-4,9-diazaspiro[5.5]undecan-3-one hydrochloride] | < 100 nM
32 | CC1OC2(CCN(CCc3ccccc3)CC2)CN(c2cccnc2)C1=O (stereo not drawn) [Example 194, 2-methyl-9-phenethyl-4-(pyridin-3-yl)-1-oxa-4,9-diazaspiro[5.5]undecan-3-one hydrochloride] | < 500 nM
33 | CC1OC2(CCN(CCc3ccccc3)CC2)CN(c2cnccn2)C1=O (stereo not drawn) [Example 195, 2-methyl-9-phenethyl-4-(pyrazin-2-yl)-1-oxa-4,9-diazaspiro[5.5]undecan-3-one hydrochloride] | < 500 nM
34 | CC1OC2(CCN(CCc3ccccc3)CC2)CN(c2cccc([N+](=O)[O-])c2)C1=O (stereo not drawn) [Example 199, 2-methyl-4-(3-nitrophenyl)-9-phenethyl-1-oxa-4,9-diazaspiro[5.5]undecan-3-one] | > 500 nM
35 | COc1ccccc1N1CC2(CCN(CCc3ccccc3)CC2)OC(C)C1=O (stereo not drawn) [Example 206, 4-(2-methoxyphenyl)-2-methyl-9-phenethyl-1-oxa-4,9-diazaspiro[5.5]undecan-3-one hydrochloride] | < 100 nM
36 | CC1OC2(CCN(CCc3ccccc3)CC2)CN(c2cccc(C(F)(F)F)n2)C1=O (stereo not drawn) [Example 207, 2-methyl-9-phenethyl-4-(6-(trifluoromethyl)pyridin-2-yl)-1-oxa-4,9-diazaspiro[5.5]undecan-3-one] | < 100 nM
37 | CC1OC2(CCN(CCc3ccccc3)CC2)CN(c2ncccc2F)C1=O (stereo not drawn) [Example 208, 4-(3-fluoropyridin-2-yl)-2-methyl-9-phenethyl-1-oxa-4,9-diazaspiro[5.5]undecan-3-one] | < 100 nM
38 | CC1OC2(CCN(CCc3ccccc3)CC2)CN(c2nccs2)C1=O (stereo not drawn) [Example 209, 2-methyl-9-phenethyl-4-(thiazol-2-yl)-1-oxa-4,9-diazaspiro[5.5]undecan-3-one hydrochloride] | < 500 nM
39 | CC1OC2(CCN(CCc3ccccc3)CC2)CN(c2ccc(C(F)(F)F)nc2)C1=O (stereo not drawn) [Example 212, 2-methyl-9-phenethyl-4-(6-(trifluoromethyl)pyridin-3-yl)-1-oxa-4,9-diazaspiro[5.5]undecan-3-one hydrochloride] | > 500 nM
